Results as given in patent publication US7128900B2, “Light-protection agents” (Merck Patent GmbH, priority 2002, dated 2006).
Several values for one entry are separate records, joined by “and”; a condition that tells them apart may be missing. Identical values can stand only once.

Assay: UV absorption spectrum (UV-VIS) in 2-propanol
Format: physicochemical
Details: for UV absorption maximum λ / ε at the UV absorption maximum: in 2-propanol; for UV-vis λmax: several maxima listed
Protocol: The UV-VIS spectrum was measured on a Varian Cary 100 biospectrophotometer fitted with a heated cell holder (concentration=0.001 g/100 ml of 2-propanol; cell thickness d=1 cm; wavelength range: 200 to 800 nm).
The UV-VIS spectrum was measured on a Varian Cary 100 biospectrophotometer fitted with a heated cell holder (concentration=0.001 g/ 100 ml of 2-propanol; cell thickness d=1 cm; wavelength range: 200 to 800 nm).

Row | UV absorption maximum λ | ε at the UV absorption maximum | UV-vis λmax (2-propanol, 1 mg/100 ml) | SMILES | further results
1 | 322 nm | 24790 |  | COc1ccc(-c2cc(=O)c3cc(O)ccc3o2)cc1 [Example 1, 4′-methoxy-6-hydroxyflavone] | 
2 |  |  | 281 nm and 324 nm | COc1cc(-c2cc(=O)c3cc(O)c(O)cc3o2)cc(OC)c1OC [Example 5, 2-(3′,4′,5′-trimethoxyphenyl)-6,7-dihydroxy-4-oxo-4H-1-benzopyran] | UV-vis (e) at λmax 281 nm (2-propanol, 1 mg/100 ml, 281 nm): 8267; UV-vis (e) at λmax 324 nm (2-propanol, 1 mg/100 ml, 324 nm): 16036

Second part, the compound before the results:

Row | SMILES | UV absorption maximum λ | ε at the UV absorption maximum | UV-vis λmax (2-propanol, 1 mg/100 ml) | further results
3 | O=c1cc(-c2ccc(O)cc2)oc2cc(O)ccc12 [Example 3, 4′,7-dihydroxyflavone] | 329 nm | 27960 |  | 
4 | COc1ccc(-c2cc(=O)c3ccc(OC4O[C@H](CO)[C@@H](O)[C@H](O)[C@H]4O)cc3o2)cc1 (stereo partly drawn) [Example 4, 4′-methoxy-7-β-glucosidylflavone] | 318 nm | 37185 |  | 
5 | O=c1cc(-c2ccc(O)cc2)oc2ccc(O)cc12 [Example 6, 2-(4′-hydroxyphenyl)-6-hydroxy-4-oxo-4H-1-benzopyran] |  |  | 228 nm and 277 nm and 328 nm | UV-vis (e) at λmax 228 nm (2-propanol, 1 mg/100 ml, 228 nm): 23068; UV-vis (e) at λmax 277 nm (2-propanol, 1 mg/100 ml, 277 nm): 14805; UV-vis (e) at λmax 328 nm (2-propanol, 1 mg/100 ml, 328 nm): 30971
